Reference: the NIST ThermoML archive (doi:10.1016/j.tca.2012.02.002)
Where “and” joins values, the source holds several entries; their conditions need not be identical. Identical values can stand only once.

Assay: molar heat capacity at constant pressure
Settings: 101.33 kPa, Crystal

O=P([O-])([O-])[O-].[Er+3] [erbium phosphate]
Settings | molar heat capacity at constant pressure
2 K, Drop calorimetry | 0.189 J/K/mol
2.05 K, Relaxation Calorimetry | 0.1821 J/K/mol
2.06 K, Relaxation Calorimetry | 0.1815 J/K/mol
2.15 K, Relaxation Calorimetry | 0.169 J/K/mol and 0.1693 J/K/mol
2.23 K, Relaxation Calorimetry | 0.1585 J/K/mol
2.24 K, Relaxation Calorimetry | 0.1587 J/K/mol
2.33 K, Relaxation Calorimetry | 0.1486 J/K/mol and 0.1492 J/K/mol
2.42 K, Relaxation Calorimetry | 0.1398 J/K/mol
2.52 K, Relaxation Calorimetry | 0.1308 J/K/mol and 0.1303 J/K/mol
2.62 K, Relaxation Calorimetry | 0.1226 J/K/mol
2.63 K, Relaxation Calorimetry | 0.1216 J/K/mol
2.73 K, Relaxation Calorimetry | 0.1149 J/K/mol
2.74 K, Relaxation Calorimetry | 0.1147 J/K/mol
2.84 K, Relaxation Calorimetry | 0.1079 J/K/mol
2.85 K, Relaxation Calorimetry | 0.1075 J/K/mol
2.96 K, Relaxation Calorimetry | 0.1012 J/K/mol
2.97 K, Relaxation Calorimetry | 0.101 J/K/mol
3 K, Drop calorimetry | 0.0991 J/K/mol
3.08 K, Relaxation Calorimetry | 0.09512 J/K/mol
3.09 K, Relaxation Calorimetry | 0.095 J/K/mol
3.21 K, Relaxation Calorimetry | 0.08975 J/K/mol
3.22 K, Relaxation Calorimetry | 0.0889 J/K/mol
3.34 K, Relaxation Calorimetry | 0.08523 J/K/mol
3.35 K, Relaxation Calorimetry | 0.0846 J/K/mol
3.48 K, Relaxation Calorimetry | 0.08127 J/K/mol and 0.0813 J/K/mol
3.62 K, Relaxation Calorimetry | 0.07825 J/K/mol
3.64 K, Relaxation Calorimetry | 0.0777 J/K/mol
3.77 K, Relaxation Calorimetry | 0.07611 J/K/mol and 0.0763 J/K/mol
3.93 K, Relaxation Calorimetry | 0.0754 J/K/mol
4 K, Drop calorimetry | 0.0755 J/K/mol
4.1 K, Relaxation Calorimetry | 0.07633 J/K/mol and 0.0764 J/K/mol
4.27 K, Relaxation Calorimetry | 0.07937 J/K/mol and 0.079 J/K/mol
4.44 K, Relaxation Calorimetry | 0.08477 J/K/mol
4.45 K, Relaxation Calorimetry | 0.0843 J/K/mol
4.62 K, Relaxation Calorimetry | 0.09293 J/K/mol
4.63 K, Relaxation Calorimetry | 0.0925 J/K/mol
4.82 K, Relaxation Calorimetry | 0.1048 J/K/mol and 0.1045 J/K/mol
5.02 K, Relaxation Calorimetry | 0.1211 J/K/mol and 0.1208 J/K/mol
5.22 K, Relaxation Calorimetry | 0.1421 J/K/mol and 0.142 J/K/mol
5.44 K, Relaxation Calorimetry | 0.1701 J/K/mol and 0.1698 J/K/mol
5.67 K, Relaxation Calorimetry | 0.2055 J/K/mol and 0.2049 J/K/mol
5.91 K, Relaxation Calorimetry | 0.2491 J/K/mol and 0.2489 J/K/mol
6 K, Drop calorimetry | 0.268 J/K/mol
6.15 K, Relaxation Calorimetry | 0.3031 J/K/mol and 0.3029 J/K/mol
6.41 K, Relaxation Calorimetry | 0.3662 J/K/mol and 0.3497 J/K/mol
6.67 K, Relaxation Calorimetry | 0.4408 J/K/mol
6.68 K, Relaxation Calorimetry | 0.4451 J/K/mol
6.96 K, Relaxation Calorimetry | 0.5353 J/K/mol and 0.5363 J/K/mol
7.24 K, Relaxation Calorimetry | 0.6377 J/K/mol
7.25 K, Relaxation Calorimetry | 0.6369 J/K/mol
7.55 K, Relaxation Calorimetry | 0.7594 J/K/mol and 0.7584 J/K/mol
7.87 K, Relaxation Calorimetry | 0.893 J/K/mol and 0.8931 J/K/mol
8 K, Drop calorimetry | 0.956 J/K/mol
8.2 K, Relaxation Calorimetry | 1.047 J/K/mol and 1.049 J/K/mol
8.54 K, Relaxation Calorimetry | 1.218 J/K/mol
8.56 K, Vacuum adiabatic calorimetry | 1.262 J/K/mol
8.9 K, Relaxation Calorimetry | 1.407 J/K/mol and 1.404 J/K/mol
9.19 K, Vacuum adiabatic calorimetry | 1.587 J/K/mol
9.27 K, Relaxation Calorimetry | 1.607 J/K/mol and 1.604 J/K/mol
9.65 K, Relaxation Calorimetry | 1.831 J/K/mol
9.84 K, Vacuum adiabatic calorimetry | 1.971 J/K/mol
10 K, Drop calorimetry | 2.222 J/K/mol
10.05 K, Relaxation Calorimetry | 2.057 J/K/mol and 2.046 J/K/mol
10.26 K, Relaxation Calorimetry | 2.218 J/K/mol
10.52 K, Vacuum adiabatic calorimetry | 2.384 J/K/mol
10.53 K, Relaxation Calorimetry | 2.408 J/K/mol
10.66 K, Relaxation Calorimetry | 2.462 J/K/mol
10.91 K, Relaxation Calorimetry | 2.636 J/K/mol
11.1 K, Relaxation Calorimetry | 2.733 J/K/mol
11.21 K, Vacuum adiabatic calorimetry | 2.814 J/K/mol
11.35 K, Relaxation Calorimetry | 2.908 J/K/mol
11.56 K, Relaxation Calorimetry | 3.016 J/K/mol
11.81 K, Relaxation Calorimetry | 3.191 J/K/mol
11.92 K, Vacuum adiabatic calorimetry | 3.253 J/K/mol
12.04 K, Relaxation Calorimetry | 3.31 J/K/mol
12.29 K, Relaxation Calorimetry | 3.486 J/K/mol
12.53 K, Relaxation Calorimetry | 3.616 J/K/mol
12.64 K, Vacuum adiabatic calorimetry | 3.701 J/K/mol
12.78 K, Relaxation Calorimetry | 3.791 J/K/mol
13.05 K, Relaxation Calorimetry | 3.929 J/K/mol
13.3 K, Relaxation Calorimetry | 4.098 J/K/mol
13.37 K, Vacuum adiabatic calorimetry | 4.111 J/K/mol
13.59 K, Relaxation Calorimetry | 4.242 J/K/mol
13.84 K, Relaxation Calorimetry | 4.403 J/K/mol
14.12 K, Vacuum adiabatic calorimetry | 4.51 J/K/mol
14.15 K, Relaxation Calorimetry | 4.549 J/K/mol
14.41 K, Relaxation Calorimetry | 4.708 J/K/mol
14.74 K, Relaxation Calorimetry | 4.863 J/K/mol
14.88 K, Vacuum adiabatic calorimetry | 4.899 J/K/mol
14.99 K, Relaxation Calorimetry | 5.019 J/K/mol
15 K, Drop calorimetry | 4.903 J/K/mol
15.35 K, Relaxation Calorimetry | 5.181 J/K/mol
15.6 K, Relaxation Calorimetry | 5.328 J/K/mol
15.65 K, Vacuum adiabatic calorimetry | 5.247 J/K/mol
15.99 K, Relaxation Calorimetry | 5.488 J/K/mol
16.24 K, Relaxation Calorimetry | 5.627 J/K/mol
16.43 K, Vacuum adiabatic calorimetry | 5.599 J/K/mol
16.65 K, Relaxation Calorimetry | 5.792 J/K/mol
16.91 K, Relaxation Calorimetry | 5.923 J/K/mol
17.21 K, Vacuum adiabatic calorimetry | 5.933 J/K/mol
17.34 K, Relaxation Calorimetry | 6.085 J/K/mol
17.6 K, Relaxation Calorimetry | 6.206 J/K/mol
18 K, Vacuum adiabatic calorimetry | 6.247 J/K/mol
18.06 K, Relaxation Calorimetry | 6.369 J/K/mol
18.32 K, Relaxation Calorimetry | 6.493 J/K/mol
18.8 K, Vacuum adiabatic calorimetry | 6.533 J/K/mol
18.81 K, Relaxation Calorimetry | 6.67 J/K/mol
19.07 K, Relaxation Calorimetry | 6.774 J/K/mol
19.59 K, Vacuum adiabatic calorimetry | 6.837 J/K/mol
19.6 K, Relaxation Calorimetry | 6.935 J/K/mol
19.85 K, Relaxation Calorimetry | 7.052 J/K/mol
20 K, Drop calorimetry | 6.881 J/K/mol
20.41 K, Relaxation Calorimetry | 7.222 J/K/mol
20.67 K, Relaxation Calorimetry | 7.329 J/K/mol
20.84 K, Vacuum adiabatic calorimetry | 7.265 J/K/mol
21.26 K, Relaxation Calorimetry | 7.493 J/K/mol
21.52 K, Relaxation Calorimetry | 7.59 J/K/mol
22.14 K, Relaxation Calorimetry | 7.771 J/K/mol
22.39 K, Vacuum adiabatic calorimetry | 7.793 J/K/mol
22.4 K, Relaxation Calorimetry | 7.869 J/K/mol
23.06 K, Relaxation Calorimetry | 8.068 J/K/mol
23.32 K, Relaxation Calorimetry | 8.163 J/K/mol
23.97 K, Vacuum adiabatic calorimetry | 8.29 J/K/mol
24.02 K, Relaxation Calorimetry | 8.364 J/K/mol
24.29 K, Relaxation Calorimetry | 8.456 J/K/mol
25 K, Drop calorimetry | 8.631 J/K/mol
25.02 K, Relaxation Calorimetry | 8.665 J/K/mol
25.28 K, Relaxation Calorimetry | 8.765 J/K/mol
25.55 K, Vacuum adiabatic calorimetry | 8.799 J/K/mol
26.06 K, Relaxation Calorimetry | 9.002 J/K/mol
26.32 K, Relaxation Calorimetry | 9.091 J/K/mol
27.13 K, Vacuum adiabatic calorimetry | 9.314 J/K/mol
27.41 K, Relaxation Calorimetry | 9.432 J/K/mol
28.27 K, Relaxation Calorimetry | 9.673 J/K/mol
28.53 K, Relaxation Calorimetry | 9.786 J/K/mol
28.72 K, Vacuum adiabatic calorimetry | 9.871 J/K/mol
29.45 K, Relaxation Calorimetry | 10.07 J/K/mol
29.72 K, Relaxation Calorimetry | 10.17 J/K/mol
30 K, Drop calorimetry | 10.43 J/K/mol
30.31 K, Vacuum adiabatic calorimetry | 10.46 J/K/mol
30.68 K, Relaxation Calorimetry | 10.5 J/K/mol
30.95 K, Relaxation Calorimetry | 10.6 J/K/mol
31.9 K, Vacuum adiabatic calorimetry | 11.11 J/K/mol
31.97 K, Relaxation Calorimetry | 10.96 J/K/mol
32.22 K, Relaxation Calorimetry | 11.08 J/K/mol
33.31 K, Relaxation Calorimetry | 11.44 J/K/mol
33.49 K, Vacuum adiabatic calorimetry | 11.75 J/K/mol
33.56 K, Relaxation Calorimetry | 11.58 J/K/mol
34.69 K, Relaxation Calorimetry | 11.99 J/K/mol
34.95 K, Relaxation Calorimetry | 12.12 J/K/mol
35 K, Drop calorimetry | 12.41 J/K/mol
35.09 K, Vacuum adiabatic calorimetry | 12.32 J/K/mol
36.69 K, Vacuum adiabatic calorimetry | 13.09 J/K/mol
38.29 K, Vacuum adiabatic calorimetry | 13.85 J/K/mol
39.9 K, Vacuum adiabatic calorimetry | 14.59 J/K/mol
40 K, Drop calorimetry | 14.63 J/K/mol
41.51 K, Vacuum adiabatic calorimetry | 15.35 J/K/mol
43.13 K, Vacuum adiabatic calorimetry | 16.12 J/K/mol
44.75 K, Vacuum adiabatic calorimetry | 16.95 J/K/mol
45 K, Drop calorimetry | 17.07 J/K/mol
46.39 K, Vacuum adiabatic calorimetry | 17.8 J/K/mol
